From PubChem BioAssay AID1259407 (Chemical Carcinogenesis Research Information System (CCRIS), 2018) come the findings set out here.

The subject of this data set is CCRIS mutagenicity, Ames/micronucleus/aberration tests. Description: CCRIS mutagenicity studies.
[1] abbreviates: Test System: AMES SALMONELLA TYPHIMURIUM, Strain/Indicator: TA98, Metabolic Activation: NONE, Method: STANDARD PLATE.
The mark [2] stands for this setting: Test System: AMES SALMONELLA TYPHIMURIUM, Strain/Indicator: TA100, Metabolic Activation: NONE, Method: STANDARD PLATE.
Setting [3] is: Test System: AMES SALMONELLA TYPHIMURIUM, Strain/Indicator: TA1535, Metabolic Activation: NONE, Method: STANDARD PLATE.
Setting [4] is: Test System: AMES SALMONELLA TYPHIMURIUM, Strain/Indicator: TA1538, Metabolic Activation: NONE, Method: STANDARD PLATE.
Where [5] appears, read: Test System: AMES SALMONELLA TYPHIMURIUM, Strain/Indicator: TA98, Metabolic Activation: NONE, Method: PREINCUBATION
[6] abbreviates: Test System: AMES SALMONELLA TYPHIMURIUM, Strain/Indicator: TA98, Metabolic Activation: RAT, LIVER, S-9, AROCLOR 1254, Method: STANDARD PLATE.
Where [7] appears, read: Test System: AMES SALMONELLA TYPHIMURIUM, Strain/Indicator: TA100, Metabolic Activation: RAT, LIVER, S-9, AROCLOR 1254, Method: STANDARD PLATE.
[8] abbreviates: Test System: AMES SALMONELLA TYPHIMURIUM, Strain/Indicator: TA100, Metabolic Activation: NONE, Method: PREINCUBATION

Calls of active or inactive are those of the source. The rule behind the calls is not given here.

Turning to `O=C(Cn1c(=O)sc2ccccc21)OCc1ccccc1`, the mutagenic call is, setting by setting: (Test System: AMES SALMONELLA TYPHIMURIUM, Strain/Indicator: TA97, Metabolic Activation: NONE, Method: STANDARD PLATE) “inactive; negative”; (Test System: AMES SALMONELLA TYPHIMURIUM, Strain/Indicator: TA97, Metabolic Activation: RAT, LIVER, S-9, DELOR 103, Method: STANDARD PLATE) “inactive; negative”; under setting [1], “inactive; negative”; (Test System: AMES SALMONELLA TYPHIMURIUM, Strain/Indicator: TA98, Metabolic Activation: RAT, LIVER, S-9, DELOR 103, Method: STANDARD PLATE) “inactive; negative”; under setting [2], “inactive; negative”; (Test System: AMES SALMONELLA TYPHIMURIUM, Strain/Indicator: TA100, Metabolic Activation: RAT, LIVER, S-9, DELOR 103, Method: STANDARD PLATE) “inactive; negative”. The mutagenic call is “inactive; negative” under setting [3]; “inactive; negative” (Test System: AMES SALMONELLA TYPHIMURIUM, Strain/Indicator: TA1535, Metabolic Activation: RAT, LIVER, S-9, DELOR 103, Method: STANDARD PLATE); “inactive; negative” under setting [4]; “inactive; negative” (Test System: AMES SALMONELLA TYPHIMURIUM, Strain/Indicator: TA1538, Metabolic Activation: RAT, LIVER, S-9, DELOR 103, Method: STANDARD PLATE).

In the case of `CC(=O)Nc1ccc(Oc2ccccc2)cc1`, the mutagenic call was “inactive; negative” under setting [2] and “active; positive” (Test System: AMES SALMONELLA TYPHIMURIUM, Strain/Indicator: TA100, Metabolic Activation: RAT, LIVER, S-9, KANECLOR 500, Method: STANDARD PLATE).

Turning to `Nc1cc(Cl)c(Cl)cc1Cl`, the mutagenic call (Test System: UDS RODENT HEPATOCYTES, Strain/Indicator: THY INCORP (NON-S-PHASE), Metabolic Activation: NONE, Method: AUTORADIOGRAPHY) was “inactive; negative”.

Regarding `CC(C)NC(=O)/C=C/c1ccc([N+](=O)[O-])o1`, the mutagenic call is “active; positive” under setting [5] and “active; positive” (Test System: CHINESE HAMSTER V-79, Strain/Indicator: V-79/6-THIOGUANINE, Metabolic Activation: NONE, Method: STANDARD PLATE).

`Nc1cccc([N+](=O)[O-])c1O`: the mutagenic call under setting [1] is “inactive; negative”; the mutagenic call under setting [6] is “inactive; negative”; the mutagenic call under setting [2] was “inactive; negative”; the mutagenic call under setting [7] was “inactive; negative”; the mutagenic call under setting [3] was “inactive; negative”; the mutagenic call (Test System: AMES SALMONELLA TYPHIMURIUM, Strain/Indicator: TA1535, Metabolic Activation: RAT, LIVER, S-9, AROCLOR 1254, Method: STANDARD PLATE) is “inactive; negative”. In addition, the mutagenic call reads like this: (Test System: AMES SALMONELLA TYPHIMURIUM, Strain/Indicator: TA1537, Metabolic Activation: NONE, Method: STANDARD PLATE) “inactive; negative”; (Test System: AMES SALMONELLA TYPHIMURIUM, Strain/Indicator: TA1537, Metabolic Activation: RAT, LIVER, S-9, AROCLOR 1254, Method: STANDARD PLATE) “inactive; negative”; under setting [4], “inactive; negative”; (Test System: AMES SALMONELLA TYPHIMURIUM, Strain/Indicator: TA1538, Metabolic Activation: RAT, LIVER, S-9, AROCLOR 1254, Method: STANDARD PLATE) “inactive; negative”.

For the molecule `O=NN1CCSC1CO` (configuration not stated), the mutagenic call was “inactive; negative” under setting [5]; “inactive; negative” under setting [1]; “inactive; negative” (Test System: AMES SALMONELLA TYPHIMURIUM, Strain/Indicator: TA98, Metabolic Activation: RAT, LIVER, S-9, AROCLOR 1254, Method: PREINCUBATION); “inactive; negative” under setting [6]; “active; positive” under setting [8]; “active; positive” under setting [2]. Further, the mutagenic call (Test System: AMES SALMONELLA TYPHIMURIUM, Strain/Indicator: TA100, Metabolic Activation: RAT, LIVER, S-9, AROCLOR 1254, Method: PREINCUBATION) was “active; positive” and the mutagenic call under setting [7] is “active; positive”.

On to `Cc1ccc(C(C)(C)C)cc1`, for which the mutagenic call (Test System: AMES SALMONELLA TYPHIMURIUM, Strain/Indicator: TA98, Metabolic Activation: HAMSTER, LIVER, S-9, AROCLOR 1254 (10%), Method: PREINCUBATION) was “inactive; negative”; the mutagenic call under setting [5] was “inactive; negative”; the mutagenic call (Test System: AMES SALMONELLA TYPHIMURIUM, Strain/Indicator: TA98, Metabolic Activation: RAT, LIVER, S-9, AROCLOR 1254 (10%), Method: PREINCUBATION) is “inactive; negative”; the mutagenic call (Test System: AMES SALMONELLA TYPHIMURIUM, Strain/Indicator: TA100, Metabolic Activation: HAMSTER, LIVER, S-9, AROCLOR 1254 (10%), Method: PREINCUBATION) was “inactive; negative”; the mutagenic call under setting [8] is “inactive; negative”; the mutagenic call (Test System: AMES SALMONELLA TYPHIMURIUM, Strain/Indicator: TA100, Metabolic Activation: RAT, LIVER, S-9, AROCLOR 1254 (10%), Method: PREINCUBATION) was “inactive; negative”. Moreover, the mutagenic call (Test System: AMES SALMONELLA TYPHIMURIUM, Strain/Indicator: TA1535, Metabolic Activation: HAMSTER, LIVER, S-9, AROCLOR 1254 (10%), Method: PREINCUBATION) was “inactive; negative”; the mutagenic call (Test System: AMES SALMONELLA TYPHIMURIUM, Strain/Indicator: TA1535, Metabolic Activation: NONE, Method: PREINCUBATION) was “inactive; negative”; the mutagenic call (Test System: AMES SALMONELLA TYPHIMURIUM, Strain/Indicator: TA1535, Metabolic Activation: RAT, LIVER, S-9, AROCLOR 1254 (10%), Method: PREINCUBATION) was “inactive; negative”; the mutagenic call (Test System: AMES SALMONELLA TYPHIMURIUM, Strain/Indicator: TA1537, Metabolic Activation: HAMSTER, LIVER, S-9, AROCLOR 1254 (10%), Method: PREINCUBATION) was “inactive; negative”; the mutagenic call (Test System: AMES SALMONELLA TYPHIMURIUM, Strain/Indicator: TA1537, Metabolic Activation: NONE, Method: PREINCUBATION) is “inactive; negative”; the mutagenic call (Test System: AMES SALMONELLA TYPHIMURIUM, Strain/Indicator: TA1537, Metabolic Activation: RAT, LIVER, S-9, AROCLOR 1254 (10%), Method: PREINCUBATION) was “inactive; negative”.

For the molecule `CCN(CC)CC#CCOC(=O)C(O)(c1ccccc1)C1CCCCC1` (configuration not stated), the mutagenic call runs as follows: (Test System: AMES SALMONELLA TYPHIMURIUM, Strain/Indicator: TA98, Metabolic Activation: NONE) “inactive; negative”; (Test System: AMES SALMONELLA TYPHIMURIUM, Strain/Indicator: TA98, Metabolic Activation: S-9) “inactive; negative”; (Test System: AMES SALMONELLA TYPHIMURIUM, Strain/Indicator: TA100, Metabolic Activation: NONE) “inactive; negative”; (Test System: AMES SALMONELLA TYPHIMURIUM, Strain/Indicator: TA100, Metabolic Activation: S-9) “inactive; negative”; (Test System: AMES SALMONELLA TYPHIMURIUM, Strain/Indicator: TA1535, Metabolic Activation: NONE) “inactive; negative”; (Test System: AMES SALMONELLA TYPHIMURIUM, Strain/Indicator: TA1535, Metabolic Activation: S-9) “inactive; negative”. Further, the mutagenic call is “inactive; negative” (Test System: AMES SALMONELLA TYPHIMURIUM, Strain/Indicator: TA1537, Metabolic Activation: NONE); “inactive; negative” (Test System: AMES SALMONELLA TYPHIMURIUM, Strain/Indicator: TA1537, Metabolic Activation: S-9); “inactive; negative” (Test System: AMES SALMONELLA TYPHIMURIUM, Strain/Indicator: TA1538, Metabolic Activation: NONE); “inactive; negative” (Test System: AMES SALMONELLA TYPHIMURIUM, Strain/Indicator: TA1538, Metabolic Activation: S-9); “inactive; negative” (Test System: E. COLI, Strain/Indicator: WP2 UVRA, Metabolic Activation: NONE); “inactive; negative” (Test System: E. COLI, Strain/Indicator: WP2 UVRA, Metabolic Activation: S-9).
